# From patent US20250235427A1, “5-METHOXY-N,N-[…][…] THE TREATMENT OF SOCIAL/EMOTIONAL […] DETACHMENT” (GH RESEARCH IRELAND LIMITED, priority 2022, published 2025)
# Test: Pharmacokinetics after inhalation of 5-MeO-DMT, LC-MS/MS
# Assay type: in vivo, human
# Conditions: for plasma concentration as % of Cmax: whole dose range 6, 12, 18 mg
compound,measurement,setting,value
COc1ccc2[nH]cc(CCN(C)C)c2c1 [5-MeO-DMT],plasma concentration as % of Cmax,10 minutes after inhalation,≤ 10%
same,plasma concentration as % of Cmax,2 hours after inhalation,≤ 1%
same,accumulation upon repeated administration,repeated administration within a time frame of 1 to 4 hours,No accumulation is observed
